# Where “and” joins values, the source holds several entries; their conditions need not be identical. Identical values can stand only once.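 Exposure lasted 48 hours, with cells grown in 96-well plates and compounds tested at five concentrations. GI50 = concentration required for 50% inhibition of growth. TGI is the concentration that stops growth completely.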
# Experiments:
# Test in all cases: NCI anticancer screen, dose series, 48 h
# [1] = system: KM12 colon
# [2] = system: HCT-116 colon
# [3] = system: PC-3 prostate
# [4] = system: ACHN renal
# [5] = system: HCT-15 colon
# [6] = system: NCI/ADR-RES ovarian
# [7] = system: T-47D breast
# [8] = system: 786-0 renal
# [9] = system: SK-MEL-28 melanoma
# [10] = system: LOX IMVI melanoma
smiles,measurement,setting,value
O=c1oc(-c2ccc(O)cc2)cc2cc(O)ccc12,TGI,[1],68 µM
same,TGI,[2],39 µM
same,TGI,[3],94 µM
same,TGI,[4],> 100 µM
same,TGI,[5],> 100 µM
same,TGI,[6],47.9 µM
same,TGI,[7],49 µM
same,TGI,[8],> 100 µM
O=C(O)c1nc2ccc(C(F)(F)F)cc2nc1Nc1ccc(Cl)c(Cl)c1,TGI,[1],20.5 µM
same,TGI,[2],17.1 µM
same,TGI,[3],15.8 µM
same,TGI,[4],49.7 µM
same,TGI,[5],22.6 µM
same,TGI,[6],19.7 µM
same,TGI,[9],26.6 µM
same,TGI,[10],21.5 µM
same,TGI,[8],23.7 µM
Nc1nc2ccc(Sc3ccc4nc(N)[nH]c(=O)c4c3)cc2c(=O)[nH]1,TGI,[1],> 100 µM
same,TGI,[2],> 100 µM
same,TGI,[3],> 100 µM
same,TGI,[4],> 100 µM
same,TGI,[5],> 100 µM
same,TGI,[6],> 100 µM
same,TGI,[9],> 100 µM
same,TGI,[7],> 100 µM
same,TGI,[8],> 100 µM
COC(=O)C1Cc2c(OC)ccc(OC)c2C(O)C1C(=O)OC (stereo not given),TGI,[1],> 100 µM
same,TGI,[2],> 100 µM
same,TGI,[3],> 100 µM
same,TGI,[4],> 100 µM
same,TGI,[6],> 100 µM
same,TGI,[9],> 100 µM
same,TGI,[10],> 100 µM
same,TGI,[7],> 100 µM
same,TGI,[8],> 100 µM
CC12CC(=O)Nc3ccccc3N1C(c1ccccc1)=NO2 (stereo not given),TGI,[1],> 100 µM
same,TGI,[2],> 100 µM
same,TGI,[3],> 100 µM
same,TGI,[4],> 100 µM
same,TGI,[5],> 100 µM
same,TGI,[6],> 100 µM
same,TGI,[8],> 100 µM
O=c1cc(-c2ccccc2)[nH]c2cc(F)cc(F)c12,TGI,[1],> 100 µM
same,TGI,[2],> 100 µM
same,TGI,[4],> 100 µM
same,TGI,[5],> 100 µM
same,TGI,[9],> 100 µM
same,TGI,[10],> 100 µM
same,TGI,[8],> 100 µM
Cc1cc(N/N=C/c2nc(-c3ccc(Cl)cc3)oc2C)c2cc(Br)ccc2n1,GI50,[1],2.21 µM
same,TGI,[1],5.43 µM
same,GI50,[2],2 µM
same,TGI,[2],4.04 µM
same,GI50,[3],2.31 µM
same,TGI,[3],6.07 µM
same,GI50,[4],2.25 µM
same,TGI,[4],5.01 µM
same,GI50,[5],1.79 µM
same,TGI,[5],4.42 µM
same,GI50,[6],2.17 µM
same,TGI,[6],4.94 µM
same,GI50,[9],2.07 µM
same,TGI,[9],4.49 µM
same,GI50,[10],1.93 µM
same,TGI,[10],3.73 µM
same,GI50,[7],1.79 µM
same,TGI,[7],3.51 µM
COc1cc(C(=O)N[C@H]2CCc3cc(OC)c(OC)c(OC)c3-c3ccc(SC)c(=O)cc32)cc(OC)c1OC,TGI,[1],16.4 µM
same,TGI,[2],3.02 µM and 17 µM
same,GI50,[4],0.0804 µM
same,TGI,[4],25 µM and > 100 µM
same,TGI,[5],25 µM
same,TGI,[9],> 100 µM
same,TGI,[10],25 µM and 19.2 µM
same,TGI,[8],25 µM and 16.3 µM
O=c1[nH]nc(-c2ccccc2)n1/N=C/c1ccccc1O,TGI,[1],> 100 µM
same,TGI,[2],> 100 µM
same,TGI,[3],> 100 µM
same,TGI,[4],> 100 µM
same,TGI,[5],> 100 µM
same,TGI,[6],> 100 µM
same,TGI,[10],> 100 µM
same,TGI,[7],> 100 µM
same,TGI,[8],> 100 µM
CC(=O)C(C)C(=O)N1C(=O)N(C)C2(C)N(C)C(=O)NC12C (stereo not given),TGI,[1],> 100 µM
same,TGI,[2],> 100 µM
same,TGI,[4],> 100 µM
same,TGI,[5],> 100 µM
same,TGI,[6],> 100 µM
same,TGI,[9],> 100 µM
same,TGI,[8],> 100 µM
Cc1cn(-c2cccc(NC(=O)c3ccc(C)c(Nc4nccc(-c5cccnc5)n4)c3)c2)cn1,GI50,[1],2.1 µM
same,TGI,[1],4.98 µM
same,GI50,[2],1.64 µM
same,TGI,[2],3.05 µM
same,GI50,[3],2.33 µM
same,TGI,[3],13.5 µM
same,GI50,[4],1.69 µM
same,TGI,[4],3.17 µM
same,GI50,[5],2.73 µM
same,TGI,[5],8.26 µM
same,GI50,[6],2.83 µM
same,TGI,[6],10.1 µM
same,GI50,[9],1.8 µM
same,TGI,[9],3.18 µM
same,GI50,[10],1.73 µM
same,TGI,[10],3.48 µM
same,GI50,[7],1.42 µM
same,TGI,[7],9.6 µM
CCC(C)C(N)C(=O)N/N=C\c1c2c(nc3ccccc13)-c1cc3c(c(=O)n1C2)COC(=O)[C@]3(O)CC (stereo not given in full),TGI,[1],> 22.5 µM
same,TGI,[2],2.96 µM
same,TGI,[3],> 100 µM
same,TGI,[4],0.575 µM
same,TGI,[5],> 100 µM
same,TGI,[9],> 100 µM
same,TGI,[10],1.08 µM
same,TGI,[7],0.188 µM
same,TGI,[8],1.12 µM
c1ccc2cc3c(NC4=NCCO4)cccc3cc2c1,TGI,[1],> 100 µM
same,TGI,[2],> 100 µM
same,TGI,[3],> 100 µM
same,TGI,[4],> 100 µM
same,TGI,[5],> 100 µM
same,TGI,[6],> 100 µM
same,TGI,[9],> 100 µM
same,TGI,[10],95 µM
same,TGI,[8],> 100 µM
CC1(C)OC(=S)N(c2ccccc2)C12C=Cc1cc3ccccc3nc1S2 (stereo not given),TGI,[1],> 100 µM
same,TGI,[2],> 100 µM
same,TGI,[4],> 100 µM
same,TGI,[5],> 100 µM
same,TGI,[9],> 100 µM
same,TGI,[10],> 100 µM
same,TGI,[8],> 100 µM
Nc1ccc(-c2nc3ccc(F)cc3s2)cc1Cl,TGI,[1],> 100 µM
same,TGI,[3],> 100 µM
same,TGI,[4],> 100 µM
same,TGI,[5],> 100 µM
same,TGI,[6],> 100 µM
same,TGI,[9],> 100 µM
same,TGI,[10],> 100 µM
same,TGI,[8],> 100 µM
COc1ccc2cc(CNCCCCCCCCNCc3ccc4cc(OC)ccc4c3)ccc2c1,TGI,[2],> 100 µM
same,TGI,[3],6.91 µM
same,TGI,[4],10.3 µM
same,TGI,[5],> 100 µM
same,TGI,[6],> 100 µM
same,TGI,[9],9.8 µM
same,TGI,[10],43.4 µM
same,TGI,[7],91 µM
same,TGI,[8],> 100 µM
O=c1[nH]ncc2[nH]c3c4ccccc4ccc3c12,TGI,[1],> 100 µM
same,TGI,[2],> 100 µM
same,TGI,[3],> 100 µM
same,TGI,[4],> 100 µM
same,TGI,[5],39.6 µM
same,TGI,[6],> 100 µM
same,TGI,[10],> 100 µM
same,TGI,[7],> 100 µM
same,TGI,[8],> 100 µM
